The results in this text go back to ChEMBL document CHEMBL2176928, “Discovery of novel inhibitors of amyloid β-peptide 1-42 aggregation” (J Med Chem, 2012).

Series [1] is described as follows: Cytotoxicity against human HeLa cells after 24 hrs by XTT assay. Format: cell-based.
Series [2] can be described thus: Inhibition of aggregation of GFP-fused amyloid beta (1 to 42) expressed in Podospora anserina assessed as reduction of amyloid beta SDS-resistant oligomers at 100 uM after 24 hrs by SDS-PAGE and Western blot analysis.
Series [3] in a line: Elongation of aggregates of GFP-fused amyloid beta (1 to 42) expressed in Podospora anserina extract assessed as reduction of amyloid beta SDS-resistant oligomers after 1 hr by SDS-PAGE and Western blot analysis.
Series [4] has as its target Amyloid-beta precursor protein (Homo sapiens) (UniProt P05067). Nature of the series: Inhibition of aggregation of human DHFR-fused amyloid beta (1 to 42) expressed in yeast harboring erg6delta assessed as increase in yeast viability measured up to 20 hrs in presence of MTX.
Series [5] in a line: Inhibition of aggregation of amyloid beta (17 to 40) assessed as fibril formation at 100 uM measured up to 13 hrs by high throughput thioflavin-T binding assay.
The target of series [6] is Amyloid-beta precursor protein (Homo sapiens) (UniProt P05067). As to the kind of experiment: Inhibition of aggregation of human DHFR-fused amyloid beta (1 to 42) expressed in yeast harboring erg6delta assessed as increase in yeast viability at 10 uM measured up to 20 hrs in presence of MTX.
Sequence of Amyloid-beta precursor protein (Homo sapiens) (P05067 whole entry, the tested form may be a part): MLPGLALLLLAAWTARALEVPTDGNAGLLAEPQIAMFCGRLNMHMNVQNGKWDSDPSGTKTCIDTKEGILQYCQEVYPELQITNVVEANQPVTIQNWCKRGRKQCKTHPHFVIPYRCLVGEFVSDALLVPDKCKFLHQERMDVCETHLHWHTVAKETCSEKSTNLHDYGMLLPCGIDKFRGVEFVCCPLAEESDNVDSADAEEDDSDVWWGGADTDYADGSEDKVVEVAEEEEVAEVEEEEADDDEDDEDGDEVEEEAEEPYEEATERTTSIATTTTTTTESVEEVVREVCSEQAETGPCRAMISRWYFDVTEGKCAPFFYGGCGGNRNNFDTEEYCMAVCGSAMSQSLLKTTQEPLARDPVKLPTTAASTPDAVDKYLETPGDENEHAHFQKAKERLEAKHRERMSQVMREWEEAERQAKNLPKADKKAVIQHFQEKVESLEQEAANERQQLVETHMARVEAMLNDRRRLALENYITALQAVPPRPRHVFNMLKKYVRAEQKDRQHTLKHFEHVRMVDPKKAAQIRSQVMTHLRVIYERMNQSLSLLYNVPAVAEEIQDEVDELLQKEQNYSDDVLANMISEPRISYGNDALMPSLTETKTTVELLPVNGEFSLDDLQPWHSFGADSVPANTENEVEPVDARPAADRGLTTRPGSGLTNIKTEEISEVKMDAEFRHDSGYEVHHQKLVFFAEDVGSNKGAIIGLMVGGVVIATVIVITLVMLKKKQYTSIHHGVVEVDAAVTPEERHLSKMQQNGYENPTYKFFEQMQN
Series [7] can be described thus: Toxicity in Podospora anserina expressing GFP-fused amyloid beta (1 to 42) assessed as effect on lifespan and growth rate of fungi at 100 uM.
A short description of series [8]: Inhibition of aggregation of amyloid beta (17 to 40) assessed as fibril formation at 100 uM measured up to 24 hrs by transmission electron microscopic analysis.
Series [9] is described as follows: Inhibition of aggregation of GFP-fused amyloid beta (1 to 42) expressed in Podospora anserina assessed as reduction of amyloid beta SDS-resistant oligomers at 50 uM after 10 hrs to 5 days by SDS-PAGE and Western blot analysis.
Series [10] is described as follows: Lipophilicity, log P of the compound. The format is physicochemical. As to conditions: octanol/water.
Series [11] is described as follows: Inhibition of aggregation of amyloid beta (17 to 40) assessed as fibril formation at 100 uM measured up to 10 hrs by turbidimetry assay.
Series [12] can be described thus: Inhibition of aggregation of GFP-fused amyloid beta (1 to 42) expressed in Podospora anserina assessed as reduction of amyloid beta SDS-resistant oligomers at 50 uM after 24 hrs by SDS-PAGE and Western blot analysis.
Series [13] relates to Saccharomyces cerevisiae. Nature of the series: Toxicity in yeast harboring erg6delta expressing human DHFR-fused amyloid beta (1 to 42) at 100 uM. The format is organism-based. As to conditions: in vivo.
Series [14] can be described thus: Toxicity in Podospora anserina expressing GFP-fused amyloid beta (1 to 42) assessed as effect on lifespan and growth rate of fungi at 50 uM.
Series [15] has as its system Saccharomyces cerevisiae. As to the kind of experiment: Toxicity in yeast harboring erg6delta expressing human DHFR-fused amyloid beta (1 to 42) at 10 uM. Format: organism-based. As to conditions: in vivo.

Structures are written as SMILES. The source made the active and inactive calls. The calls are words filed in the database; no cut-off is given here.

In series [1], `Cc1nc2sc3c(c2c(=O)o1)CCCC3` came in with an MCC at 24 h of 184 µM. Also, the inhibition entry in [2] was “inactive”. In series [3], the result was inactive. Moreover, the inhibition result in series [4] was “Dose-dependent effect”. The inhibition result in series [5], in series [6], in series [8], in series [9] and in series [11] was “Active” throughout. Further, the Activity result in series [7] is “Toxic”. For the same molecule, the log partition coefficient (logP) in [10] was 2.8.
`Nc1c(S(=O)(=O)c2ccc(Cl)cc2)cnc2cc(-c3ccccc3)nn12` gave an MCC at 24 h in series [1] of 22 µM. For the same molecule, the inhibition result in series [12] was “inactive”. For the same molecule, the result in [3] was inactive. The Activity result with Saccharomyces cerevisiae [13] is “Toxic”; in series [14], “Non-toxic”. Further, the inhibition entry in series [5], in series [8] and in [11] was “Active” each time. In [10], this molecule displayed a logP of 3.3.
In series [1], `O=S(=O)(Nc1ccc(N2CCCCC2)cc1)c1cc(Cl)sc1Cl` yielded an MCC at 24 h of 17 µM. The inhibition entry in [12], in series [5], in series [6], in series [8], in series [9] and in series [11] was “Active” throughout. The outcome in [3] was inactive. Also, in [4], the inhibition result was “Dose-dependent effect”. In series [14], the Activity result is recorded as “Non-toxic”. The log partition coefficient (logP) in series [10] is 3.9.
On to `CCCCC(CC)CNC(=N)NC(=N)NCCCCCCNC(=N)NC(=N)NCC(CC)CCCC.Cl.Cl` (configuration not stated) [ALEXIDINE DIHYDROCHLORIDE], for which the Activity result with Saccharomyces cerevisiae [15] was “Toxic”. In [1], the MCC at 24 h was 2 µM. In addition, the inhibition entry in series [5], in series [8] and in series [11] was “Active” in each case.
Turning to `O=C(Nc1ccccc1)Nc1ccc(Cl)cc1[N+](=O)[O-]`, the MCC at 24 h in series [1] was determined as 20 µM. In addition, in series [12], the inhibition entry was “inactive”. Further, in [3], the result was inactive. For the same molecule, the Activity entry (in the series with Saccharomyces cerevisiae [13]; in series [14]) was “Toxic” throughout. Moreover, the inhibition entry in series [5], in [6], in [8], in [9] and in series [11] was “Active” throughout. In series [10], this molecule came in with a lipophilicity (logP) of 3.7.
